Values of other authors as cited in patent US20080108695A1, “Method of Treating Asthma, Allergic Rhinitis, and Skin Disorders” (Alcon Manufacturing Ltd., priority 2006, published 2008).

Assays:
[1] = test system: neutrophils; details: potency compared with lipoxin A4; literature report of Lee et al.
[2] = biological target: T1, ALXR (formyl peptide receptor FPRL-1) (Homo sapiens, UniProt P25090); details: lipoxin A4 cognate receptor; background statement
T1 sequence (P25090 1-351): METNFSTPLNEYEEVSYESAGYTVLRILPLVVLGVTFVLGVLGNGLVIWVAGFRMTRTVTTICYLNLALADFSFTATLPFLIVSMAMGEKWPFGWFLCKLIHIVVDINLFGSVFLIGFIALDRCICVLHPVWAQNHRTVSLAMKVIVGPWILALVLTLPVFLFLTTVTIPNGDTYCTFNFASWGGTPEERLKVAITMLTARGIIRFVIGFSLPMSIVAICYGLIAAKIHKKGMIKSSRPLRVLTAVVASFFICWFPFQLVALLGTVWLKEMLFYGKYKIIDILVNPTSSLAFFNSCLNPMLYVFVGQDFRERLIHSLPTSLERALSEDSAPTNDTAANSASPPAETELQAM

[3] = biological target: T2, cysLT1 (Homo sapiens, UniProt Q9Y271); details: high affinity receptor for LTD4; background statement
T2 sequence (Q9Y271 1-337): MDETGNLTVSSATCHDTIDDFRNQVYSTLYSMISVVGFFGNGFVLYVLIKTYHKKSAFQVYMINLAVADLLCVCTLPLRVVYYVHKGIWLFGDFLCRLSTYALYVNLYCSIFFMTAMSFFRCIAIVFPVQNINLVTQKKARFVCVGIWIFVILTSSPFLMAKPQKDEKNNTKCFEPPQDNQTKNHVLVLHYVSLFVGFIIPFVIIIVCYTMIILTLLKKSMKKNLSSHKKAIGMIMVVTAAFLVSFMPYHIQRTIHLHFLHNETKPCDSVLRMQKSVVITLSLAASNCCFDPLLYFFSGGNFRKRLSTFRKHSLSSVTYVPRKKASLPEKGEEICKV

Row | binding affinity for ALXR [2] | binding affinity for cysLT1 [3] | SMILES | inhibition of LTB4-induced chemotaxis of neutrophils [1]
1 |  |  | CCCCC[C@H](O)[C@H](O)CO [Compound 2] | as potently as lipoxin A4
2 | nM affinity | nM affinity | CCCCC[C@H](O)/C=C/C=C\C=C\C=C\[C@@H](O)[C@@H](O)CCCC(=O)O [Lipoxin A4] | 
3 |  |  | COC(=O)CCC[C@H](O)[C@H](O)CO [Compound 1] | as potently as lipoxin A4
